This note sets out measurements from patent US6846937B2, “Method for the selective removal of acyl-functionality attached to the 2'-hydroxy-group of paclitaxel-related derivatives” (The University of Toledo, priority 2001, dated 2005).

A short description of data set [1]: Stability of PAC and DAP CAC analogs in methanol at ambient temperature (HPLC decay curve). Type of data set: physicochemical. The protocol: During development of an HPLC method to purify 2′,7-bis-monochloroacetyl-10-deacetylpaclitaxel (2′,7-bis-CAC-DAP), the inventors discovered that the compound was unstable in methanol solution at a concentration of 1 mg/ml. […] Thus, we decided to further investigate the apparent differences in the stability of several PAC and DAP CAC esters relative to concentration and acidity.
Compound abbreviations are provided in FIG. 2-Table 1 according to the nomenclature and numbering specified in FIG. 1. RT=Retention times on an analytical HPLC (Waters) equipped with a reversed-phase column (Supleco Discovery C18) using a gradient elution (60% acetonitrile from 0-2 min., linearly ramped from 60% to 75% from 2-12 min., and held steady at 75% for the duration of the assay) at a flow rate of 1.2 ml/min. monitored by UV detection (225 nm). NMR (CDCl3) values for the C2′ proton shifts are in ppm relative to TMS. T1/2=Apparent half-lives. All compounds were independently prepared and characterized by HPLC, NMR and elemental analyses. ^†Previously reported by Rao et al. ^††Previously reported by Rimoldi et al.^21 *Less than 5% breakdown after 72 hr.
A 1 mg/ml solution of 2′,7-bis-CAC-DAP in methanol was allowed to stand at ambient temperature. 20 μl samples were withdrawn at T=0, 2, 24 and 48 hrs. Longer incubations were deployed for compounds showing little breakdown. Aliquots were assayed directly by HPLC after establishing that responses obtained for serial dilutions of a freshly prepared 10 mg/ml stock solution of 2′,7-bis-CAC-DAP were linear throughout the concentration range anticipated for the samples. A decay curve was generated by following the decrease in compound peak area versus time. An apparent half-life (T1/2) was then calculated from a semi-log plot using Microsoft Excel. The decay curve for 2′,7-bis-CAC-DAP appears to follow pseudo first-order kinetics typical for solvolysis reactions. The T1/2 value for conversion to 7-CAC-DAP is 5.5 hrs. The product growth curve matches very closely with the compound decay curve. Similar results were obtained for all of the other 2′-chloroacetylated derivatives listed in FIG. 2-Table 1 except for 2′ CAC-DAP whose T1/2 appears to be about three-times longer (18 hrs.). Nevertheless, this derivative is still much more labile than the chloroacetyl esters placed at either the 7- or 10-positions (T1/2 values all >>72 hrs.).
For the more concentrated experiments, a 10 mg/ml solution of 2′,7-bis-CAC-DAP was allowed to stand at ambient temperature. […] For the weakly acidic studies, less than 4% breakdown of 2′,7-bis-CAC-DAP was observed over 48 hrs. and the calculated T1/2 was determined to be >1,000 hrs. […]

Data set [2] can be described thus: Alcoholysis of 2′-acyl group followed by analytical HPLC (Examples 1-4). Type of data set: physicochemical. The text has this:
As part of research to better understand the interaction of PAC-related compounds with various components within cancer cells,^11,12 the inventors deployed CAC protection of both PAC and 10-deacetylpaclitaxel (DAP) (FIG. 4). During purification of various mixtures of the three predominate CAC derivatives obtained for DAP, namely the 2′-mono-, the 2′,7-bis- and the 2′,7,10-tri-CAC protected materials, the 2′-adducts appeared to be unstable when allowed to stand for prolonged periods in methanol. Testing purified materials on a 1 mg scale confirmed this observation. Moving to a larger sample, a 40 mL solution of 2′,7-bis-CAC-DAP was then examined at a concentration of 1 mg/mL. Methanolysis of the 2′-adduct was complete after 48 hours at ambient temperature. The exclusive product was isolated by evaporation of solvent, washed with cold water, and its structure characterized as 7-mono-CAC-DAP according to NMR (FIG. 5-Table 2) and elemental analysis. […] In this case the structural integrity for the latter was additionally confirmed by its independent synthesis analogous to a literature procedure^4 wherein after treatment of PAC with chloroacetic anhydride in pyridine, the reaction mixture was subjected to 10 mM ammonia at room temperature for 1 hour prior to preparative HPLC separation of the resulting mixture of esters.
7-Monochloroacetyl-10-deactylpaclitaxel (7-CAC-DAP) (2). 2′,7-bis-CAC-DAP (1) (30 mg, 0.031 mmol) was dissolved in 40 mL of methanol (HPLC grade) and left at ambient temperature. 20 μL samples were withdrawn at several hour intervals and analyzed directly by HPLC. The conversion was complete in 48 hrs. Solvent was evaporated to dryness leaving a glossy residue which crystallized upon addition of water. Yield: 25 mg (0.028 mmol) having 97% purity by HPLC; mp 163-166° C.; Analytical HPLC RT=24 min. (Discovery column); Elemental Analysis calculated for formula C47H50ClNO14: C, 63.55%; H, 5.67%; N, 1.58%. Found: C, 63.08%; H, 5.97%; N, 1.63%.
7-Monochloroacetylpaclitaxel (7-CAC-PAC) (4). 1 mg of 2′,7-bis-CAC-PAC (3) was dissolved in 1 mL of methanol and the solution left at ambient temperature. 20 μL samples were withdrawn at several hour intervals and directly analyzed by HPLC. The conversion was complete in 48 hours. […] (Discovery column); Elemental Analysis calculated for formula C49H52Cl NO15: C, 63.26%; H, 5.63%; N, 1.51%. […]
7-Methoxyacetylpaclitaxel (7-MAC-PAC) (5). […] Samples (20 μl) were withdrawn at several hour intervals and analyzed directly by HPLC. […] (Suplecosil column); Elemental analysis calculated for C50 H55 NO16.H2O: C, 63.36%; H, 6.09%; N, 1.48%. […]

For `CC(=O)O[C@@]12CO[C@@H]1C[C@H](OC(=O)CCl)[C@@]1(C)C(=O)[C@H](O)C3=C(C)[C@@H](OC(=O)[C@H](OC(=O)CCl)[C@@H](NC(=O)c4ccccc4)c4ccccc4)C[C@@](O)([C@@H](OC(=O)c4ccccc4)[C@H]21)C3(C)C` [2′,7-bis-CAC-DAP, 2′,7-bis-Monochloroacetyl-10-deacetylpaclitaxel], the Breakdown result in data set [1] (1 mg/ml in methanol with 0.2% acetic acid, over 48 hrs.) is “less than 4%”. Besides, in data set [1] (20 mg/ml, for preparative HPLC), the “Solvolysis in more concentrated methanolic solution” value is on record as “did not appear to undergo solvolysis”. For the same molecule, the “Stability in methanol solution” value in data set [1] (concentration of 1 mg/ml) is “unstable”. The “Conversion (loss of 2′-acyl group)” value is given as “Approximately 50%” in data set [2] (80% ethanol/20% water, 56° C., 24 hours) and “Approximately 20%” in data set [2] (80% ethanol/20% water, ambient temp., 22 hours). For the same molecule, the “Time to complete methanolysis of the 2′-adduct” value in data set [2] (about 1 mg/mL in methanol, ambient temperature) stood at 48 h.
On to `COCC(=O)O[C@H]1C[C@H]2OC[C@@]2(OC(C)=O)[C@H]2[C@H](OC(=O)c3ccccc3)[C@]3(O)C[C@H](OC(=O)[C@H](OC(=O)COC)[C@@H](NC(=O)c4ccccc4)c4ccccc4)C(C)=C([C@@H](OC(C)=O)C(=O)[C@]12C)C3(C)C` [2′,7-bis-MAC-PAC], for which, in data set [2] (30 mg in 60 ml methanol, 47° C., within 7 hours), the “Conversion (loss of 2′-acyl group)” value is reported as roughly 90%.
With `CC(=O)OC12COC1CC(OC(=O)CCl)C1(C)C(=O)C(O)C3=C(C)C(OC(=O)C(O)C(NC(=O)c4ccccc4)c4ccccc4)CC(O)(C(OC(=O)c4ccccc4)C21)C3(C)C` (centres unmarked) [Compound 7-CAC-DAP, 7-Monochloroacetyl-10-deactylpaclitaxel], the “Breakdown to DAP” value in data set [1] (methanol, studied for up to 120 hrs.) was “no significant breakdown”.
